In assay [1] the target is Tyrosine-protein kinase receptor Tie-1 (Homo sapiens) (UniProt P35590). Kind of assay: Inhibition of TIE1 (unknown origin) assessed as residual activity at 100 nM by KINOMEscan analysis relative to control.
For assay [2], the system named is Tyrosine-protein kinase ABL1 (Homo sapiens), P00519 [F317L]. Kind of assay: Inhibition of nonphosphorylated ABL1 F317L mutant (unknown origin) assessed as residual activity at 100 nM by KINOMEscan analysis relative to control.
Assay [3] concerns the target Peripheral plasma membrane protein CASK (Homo sapiens) (UniProt O14936). Briefly: Inhibition of CASK (unknown origin) assessed as residual activity at 100 nM by KINOMEscan analysis relative to control.
Assay [4] has as its target T1, cGMP-dependent protein kinase 2 (Homo sapiens) (UniProt Q13237).
T1 sequence (whole entry): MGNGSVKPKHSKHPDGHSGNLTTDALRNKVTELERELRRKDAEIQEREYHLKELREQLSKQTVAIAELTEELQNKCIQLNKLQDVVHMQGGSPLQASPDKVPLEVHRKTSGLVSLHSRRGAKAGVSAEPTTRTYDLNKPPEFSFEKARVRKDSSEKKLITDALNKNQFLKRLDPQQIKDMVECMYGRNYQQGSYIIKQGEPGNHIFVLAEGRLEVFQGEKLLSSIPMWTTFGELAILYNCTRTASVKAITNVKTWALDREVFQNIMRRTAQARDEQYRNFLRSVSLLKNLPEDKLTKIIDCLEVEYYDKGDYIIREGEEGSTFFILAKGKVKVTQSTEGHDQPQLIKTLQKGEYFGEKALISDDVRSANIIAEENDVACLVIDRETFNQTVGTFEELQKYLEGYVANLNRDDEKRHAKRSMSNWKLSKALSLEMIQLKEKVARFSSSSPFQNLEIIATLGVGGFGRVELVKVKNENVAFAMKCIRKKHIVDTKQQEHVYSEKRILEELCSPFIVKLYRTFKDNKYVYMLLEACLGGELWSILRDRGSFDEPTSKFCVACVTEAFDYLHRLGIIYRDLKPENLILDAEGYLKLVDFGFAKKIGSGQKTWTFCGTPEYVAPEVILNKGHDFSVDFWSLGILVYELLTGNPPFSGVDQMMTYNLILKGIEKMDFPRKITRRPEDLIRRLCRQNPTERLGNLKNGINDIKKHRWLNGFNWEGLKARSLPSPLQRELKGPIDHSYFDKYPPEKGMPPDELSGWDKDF
Briefly: Inhibition of PRKG2 (unknown origin) assessed as residual activity at 100 nM by KINOMEscan analysis relative to control.

For a further assay, the species on record is Homo sapiens. Kind of assay: Stabilization of N-terminal His10-tagged recombinant human KRAS G12C/C118S mutant (1 to 169 residues) expressed in Escherichia coli assessed as change in melting temperature at 100 uM with heating from 25 to 85 degreeC by thermal shift assay.
Assay [5] concerns the target Atypical kinase COQ8A, mitochondrial (Homo sapiens) (UniProt Q8NI60). Briefly: Inhibition of ADCK3 (unknown origin) assessed as residual activity at 100 nM by KINOMEscan analysis relative to control.
Assay [6] deals with T2, Ephrin type-A receptor 6 (Homo sapiens) (UniProt Q9UF33).
T2 sequence (whole entry): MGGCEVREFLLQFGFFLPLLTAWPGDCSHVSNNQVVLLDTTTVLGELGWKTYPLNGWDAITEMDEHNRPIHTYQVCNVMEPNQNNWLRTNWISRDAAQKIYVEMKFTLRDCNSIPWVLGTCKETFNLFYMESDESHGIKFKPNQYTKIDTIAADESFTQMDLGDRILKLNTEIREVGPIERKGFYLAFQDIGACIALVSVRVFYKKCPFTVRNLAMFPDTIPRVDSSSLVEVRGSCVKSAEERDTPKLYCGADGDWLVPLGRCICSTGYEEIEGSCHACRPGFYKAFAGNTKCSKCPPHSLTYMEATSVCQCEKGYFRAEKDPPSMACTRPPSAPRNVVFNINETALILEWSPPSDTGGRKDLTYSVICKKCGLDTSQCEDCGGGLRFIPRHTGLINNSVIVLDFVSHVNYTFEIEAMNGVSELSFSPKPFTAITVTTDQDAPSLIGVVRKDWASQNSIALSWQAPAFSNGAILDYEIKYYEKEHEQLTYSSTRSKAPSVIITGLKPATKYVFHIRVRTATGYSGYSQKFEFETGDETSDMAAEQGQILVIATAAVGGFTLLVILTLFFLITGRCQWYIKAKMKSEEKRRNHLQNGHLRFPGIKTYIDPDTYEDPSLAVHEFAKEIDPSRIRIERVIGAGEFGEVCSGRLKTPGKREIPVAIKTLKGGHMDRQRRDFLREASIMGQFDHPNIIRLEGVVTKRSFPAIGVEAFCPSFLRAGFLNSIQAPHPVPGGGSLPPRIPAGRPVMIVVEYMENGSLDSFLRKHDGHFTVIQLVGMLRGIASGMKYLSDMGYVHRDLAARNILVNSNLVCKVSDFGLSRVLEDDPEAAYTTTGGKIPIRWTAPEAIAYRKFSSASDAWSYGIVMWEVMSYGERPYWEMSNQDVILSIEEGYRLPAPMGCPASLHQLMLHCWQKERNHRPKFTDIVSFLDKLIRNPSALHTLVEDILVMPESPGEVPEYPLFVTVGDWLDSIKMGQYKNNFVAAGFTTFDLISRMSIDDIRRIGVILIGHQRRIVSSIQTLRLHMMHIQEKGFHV
Briefly: Inhibition of EPHA6 (unknown origin) assessed as residual activity at 100 nM by KINOMEscan analysis relative to control.

The target of assay [7] is T3, Serine/threonine-protein kinase Sgk1 (Homo sapiens) (UniProt O00141).
T3 sequence (whole entry): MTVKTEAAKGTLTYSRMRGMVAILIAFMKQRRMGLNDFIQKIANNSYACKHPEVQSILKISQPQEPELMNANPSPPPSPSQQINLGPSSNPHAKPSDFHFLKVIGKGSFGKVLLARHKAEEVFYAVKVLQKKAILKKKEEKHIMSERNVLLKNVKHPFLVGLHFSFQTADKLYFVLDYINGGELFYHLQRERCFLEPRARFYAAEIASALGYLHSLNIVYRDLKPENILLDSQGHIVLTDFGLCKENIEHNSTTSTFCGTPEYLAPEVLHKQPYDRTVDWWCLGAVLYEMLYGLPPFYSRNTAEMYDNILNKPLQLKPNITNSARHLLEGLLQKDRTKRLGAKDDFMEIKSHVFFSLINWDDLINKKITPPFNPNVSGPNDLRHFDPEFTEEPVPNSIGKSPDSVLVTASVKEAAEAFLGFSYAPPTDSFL
Briefly: Inhibition of SGK (unknown origin) assessed as residual activity at 100 nM by KINOMEscan analysis relative to control.

Assay [8] has as its target Tyrosine-protein kinase Blk (Homo sapiens) (UniProt P51451). Briefly: Inhibition of BLK (unknown origin) assessed as residual activity at 100 nM by KINOMEscan analysis relative to control.
The target of assay [9] is Phosphorylase b kinase gamma catalytic chain, skeletal muscle/heart isoform (Homo sapiens) (UniProt Q16816). Briefly: Inhibition of PHKG1 (unknown origin) assessed as residual activity at 100 nM by KINOMEscan analysis relative to control.
Chain of Phosphorylase b kinase gamma catalytic chain, skeletal muscle/heart isoform (Homo sapiens) (Q16816 whole entry, looked up, canonical isoform): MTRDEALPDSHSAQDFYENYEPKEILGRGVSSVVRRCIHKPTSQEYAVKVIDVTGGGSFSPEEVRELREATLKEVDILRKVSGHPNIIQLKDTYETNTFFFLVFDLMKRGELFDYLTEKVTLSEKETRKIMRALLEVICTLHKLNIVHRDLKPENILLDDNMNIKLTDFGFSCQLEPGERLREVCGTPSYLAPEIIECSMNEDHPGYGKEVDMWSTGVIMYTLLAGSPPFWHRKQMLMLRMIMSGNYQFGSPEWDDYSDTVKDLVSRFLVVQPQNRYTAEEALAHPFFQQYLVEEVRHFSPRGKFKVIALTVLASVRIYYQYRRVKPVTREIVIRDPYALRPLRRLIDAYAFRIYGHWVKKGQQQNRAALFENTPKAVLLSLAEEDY

Chain of Atypical kinase COQ8A, mitochondrial (Homo sapiens) (Q8NI60 163-647 limits assumed): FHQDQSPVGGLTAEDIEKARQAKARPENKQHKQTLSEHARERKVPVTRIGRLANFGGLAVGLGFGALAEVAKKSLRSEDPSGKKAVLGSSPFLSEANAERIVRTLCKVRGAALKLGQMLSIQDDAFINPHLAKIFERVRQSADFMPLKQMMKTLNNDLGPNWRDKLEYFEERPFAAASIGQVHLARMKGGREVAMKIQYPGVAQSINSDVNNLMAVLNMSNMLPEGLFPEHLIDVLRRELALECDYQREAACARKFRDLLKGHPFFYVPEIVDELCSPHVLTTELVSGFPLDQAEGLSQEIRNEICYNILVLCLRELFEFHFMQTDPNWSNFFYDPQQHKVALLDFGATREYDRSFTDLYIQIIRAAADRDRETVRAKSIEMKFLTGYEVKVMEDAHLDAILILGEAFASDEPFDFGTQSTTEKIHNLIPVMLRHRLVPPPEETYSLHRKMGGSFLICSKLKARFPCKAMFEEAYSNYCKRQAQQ
Chain of Tyrosine-protein kinase receptor Tie-1 (Homo sapiens) (P35590 whole entry): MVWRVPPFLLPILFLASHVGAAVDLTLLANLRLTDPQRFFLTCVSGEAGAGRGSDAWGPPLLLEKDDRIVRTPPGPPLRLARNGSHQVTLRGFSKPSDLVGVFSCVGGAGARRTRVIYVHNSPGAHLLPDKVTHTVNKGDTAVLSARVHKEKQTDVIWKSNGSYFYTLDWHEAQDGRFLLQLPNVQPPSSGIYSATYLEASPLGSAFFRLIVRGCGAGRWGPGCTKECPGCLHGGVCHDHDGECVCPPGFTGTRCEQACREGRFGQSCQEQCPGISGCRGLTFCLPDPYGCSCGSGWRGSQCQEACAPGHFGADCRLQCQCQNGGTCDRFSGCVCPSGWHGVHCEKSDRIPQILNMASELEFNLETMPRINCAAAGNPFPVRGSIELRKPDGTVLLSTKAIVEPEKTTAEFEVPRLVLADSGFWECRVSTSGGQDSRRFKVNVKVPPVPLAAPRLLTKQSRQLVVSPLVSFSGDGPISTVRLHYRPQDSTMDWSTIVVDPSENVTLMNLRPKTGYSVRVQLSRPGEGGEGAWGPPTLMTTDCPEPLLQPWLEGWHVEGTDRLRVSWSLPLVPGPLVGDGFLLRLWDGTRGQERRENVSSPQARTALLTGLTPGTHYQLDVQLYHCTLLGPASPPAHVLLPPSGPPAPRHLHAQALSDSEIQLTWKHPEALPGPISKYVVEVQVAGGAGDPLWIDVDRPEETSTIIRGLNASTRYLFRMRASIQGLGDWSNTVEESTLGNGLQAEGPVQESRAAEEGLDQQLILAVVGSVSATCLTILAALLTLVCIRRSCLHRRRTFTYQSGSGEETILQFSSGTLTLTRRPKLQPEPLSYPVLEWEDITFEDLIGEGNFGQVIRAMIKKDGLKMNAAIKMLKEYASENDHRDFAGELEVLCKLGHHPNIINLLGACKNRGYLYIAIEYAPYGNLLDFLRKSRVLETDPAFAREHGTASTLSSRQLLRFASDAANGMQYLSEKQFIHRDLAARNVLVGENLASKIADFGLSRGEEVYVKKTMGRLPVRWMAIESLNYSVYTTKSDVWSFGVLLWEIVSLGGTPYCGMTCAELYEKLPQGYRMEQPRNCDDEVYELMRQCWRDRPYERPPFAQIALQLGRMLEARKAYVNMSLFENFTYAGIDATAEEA
Chain of Peripheral plasma membrane protein CASK (Homo sapiens) (O14936 whole entry, looked up): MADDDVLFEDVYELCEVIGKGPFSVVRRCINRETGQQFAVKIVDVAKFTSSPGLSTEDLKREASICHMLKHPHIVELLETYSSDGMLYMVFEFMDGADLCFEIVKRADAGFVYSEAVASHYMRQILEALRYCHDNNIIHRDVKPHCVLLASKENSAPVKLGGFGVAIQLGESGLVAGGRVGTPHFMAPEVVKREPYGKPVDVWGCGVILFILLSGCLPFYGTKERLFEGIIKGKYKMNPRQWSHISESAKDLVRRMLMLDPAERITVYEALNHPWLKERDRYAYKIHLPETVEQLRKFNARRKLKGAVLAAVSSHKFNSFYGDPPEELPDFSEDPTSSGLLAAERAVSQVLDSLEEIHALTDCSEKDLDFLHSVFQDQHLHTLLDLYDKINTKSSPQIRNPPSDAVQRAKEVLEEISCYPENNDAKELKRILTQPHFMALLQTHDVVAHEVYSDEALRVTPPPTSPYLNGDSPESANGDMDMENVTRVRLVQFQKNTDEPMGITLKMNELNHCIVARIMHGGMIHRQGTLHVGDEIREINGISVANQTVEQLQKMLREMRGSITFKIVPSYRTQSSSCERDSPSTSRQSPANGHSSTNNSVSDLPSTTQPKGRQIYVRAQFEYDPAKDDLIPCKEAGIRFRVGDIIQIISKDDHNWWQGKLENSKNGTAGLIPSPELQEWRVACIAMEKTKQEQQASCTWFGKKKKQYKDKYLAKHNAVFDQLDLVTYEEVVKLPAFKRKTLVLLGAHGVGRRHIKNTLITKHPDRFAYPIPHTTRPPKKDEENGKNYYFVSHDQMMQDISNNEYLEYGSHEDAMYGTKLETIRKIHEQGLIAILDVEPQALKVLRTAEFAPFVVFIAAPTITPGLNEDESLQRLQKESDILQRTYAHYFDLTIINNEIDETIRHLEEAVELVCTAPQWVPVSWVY
Chain of Tyrosine-protein kinase Blk (Homo sapiens) (P51451 2-505 limits assumed): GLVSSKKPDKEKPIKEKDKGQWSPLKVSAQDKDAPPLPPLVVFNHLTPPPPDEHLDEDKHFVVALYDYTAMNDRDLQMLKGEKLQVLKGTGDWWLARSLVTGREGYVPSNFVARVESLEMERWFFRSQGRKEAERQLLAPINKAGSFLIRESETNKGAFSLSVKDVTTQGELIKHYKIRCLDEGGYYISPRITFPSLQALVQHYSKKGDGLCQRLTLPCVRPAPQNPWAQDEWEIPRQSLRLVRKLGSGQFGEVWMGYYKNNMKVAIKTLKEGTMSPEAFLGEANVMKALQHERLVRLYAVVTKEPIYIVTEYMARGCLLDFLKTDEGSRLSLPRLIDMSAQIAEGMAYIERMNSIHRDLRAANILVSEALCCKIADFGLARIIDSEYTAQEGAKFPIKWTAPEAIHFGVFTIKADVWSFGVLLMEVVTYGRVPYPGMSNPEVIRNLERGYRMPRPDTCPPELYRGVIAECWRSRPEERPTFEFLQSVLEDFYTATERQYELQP
Chain of Tyrosine-protein kinase ABL1 (Homo sapiens), P00519 [F317L] (P00519 whole entry F317L): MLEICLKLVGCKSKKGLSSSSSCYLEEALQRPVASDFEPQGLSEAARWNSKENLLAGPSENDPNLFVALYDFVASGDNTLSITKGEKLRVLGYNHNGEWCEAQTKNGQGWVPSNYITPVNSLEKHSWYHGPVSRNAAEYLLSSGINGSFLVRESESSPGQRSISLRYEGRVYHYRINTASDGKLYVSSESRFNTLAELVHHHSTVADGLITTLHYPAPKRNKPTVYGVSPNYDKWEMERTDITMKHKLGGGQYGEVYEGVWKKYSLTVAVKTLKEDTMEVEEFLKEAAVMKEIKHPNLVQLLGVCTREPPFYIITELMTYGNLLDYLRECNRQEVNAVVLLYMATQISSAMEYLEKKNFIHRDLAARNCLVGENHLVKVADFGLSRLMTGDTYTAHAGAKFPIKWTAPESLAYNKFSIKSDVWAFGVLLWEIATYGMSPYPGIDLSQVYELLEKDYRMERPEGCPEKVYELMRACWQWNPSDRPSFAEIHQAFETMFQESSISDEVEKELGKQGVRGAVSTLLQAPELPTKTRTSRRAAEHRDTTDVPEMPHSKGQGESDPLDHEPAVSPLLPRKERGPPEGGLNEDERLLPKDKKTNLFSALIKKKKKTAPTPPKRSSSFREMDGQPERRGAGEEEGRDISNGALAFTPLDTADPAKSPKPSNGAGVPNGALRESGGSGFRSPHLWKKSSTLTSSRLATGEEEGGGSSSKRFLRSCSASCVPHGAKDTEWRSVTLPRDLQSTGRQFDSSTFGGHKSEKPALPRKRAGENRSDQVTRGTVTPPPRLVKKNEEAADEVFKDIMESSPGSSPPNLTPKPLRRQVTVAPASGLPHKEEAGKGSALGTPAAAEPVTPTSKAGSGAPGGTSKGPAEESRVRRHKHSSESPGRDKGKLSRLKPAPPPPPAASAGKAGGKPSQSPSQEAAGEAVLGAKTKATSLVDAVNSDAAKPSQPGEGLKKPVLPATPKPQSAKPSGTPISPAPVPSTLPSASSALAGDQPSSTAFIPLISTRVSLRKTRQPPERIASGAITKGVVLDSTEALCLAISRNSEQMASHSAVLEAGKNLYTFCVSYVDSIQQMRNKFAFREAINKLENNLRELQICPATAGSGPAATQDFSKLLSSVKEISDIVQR

As for `COc1cc2ncnc(N[C@H](C)c3cccc4ccccc34)c2cc1OC`, the Activity came out at 85% in assay [1]; 100% in assay [2]; 72% in assay [3]; 70% in assay [4]; 64% in assay [5]; 77% in [6]. In addition, the Activity in [7] was found to be 87%; in assay [8], 77%; in [9], 100%. Besides, the ΔTm in the assay listed under Homo sapiens was -1.9 °C.

These data come from ChEMBL document CHEMBL5678818, “Discovery of potent SOS1 inhibitors that block RAS activation via disruption of the RAS-SOS1 interaction” (Proc Natl Acad Sci U S A, 2019).
